In publication PMC11768839 (Viruses, 2024):

Legend:
[1] = test system: influenza PR8; assay type: cell-based, Influenza A virus PR8
[2] = test system: HCoV-229E

O=[N+]([O-])c1ccc(Nc2ccc(Cl)c(C(F)(F)F)c2)c2nonc12 [Compound 5342191, N-[4-chloro-3-(trifluoromethyl)phenyl]-7-nitro-2,1,3-benzoxadiazol-4-amine]
sensitivity of selected influenza PR8 virus to EC90 dose [1]: remained sensitive | sensitivity of selected HCoV-229E virus to EC90 dose [2]: remained sensitive
